Reference: DBAASP
Values after ≈ are worked out from the molar mass of the structure shown.

Legend:
Assay in all cases: ≥ marks a high value that may be exact or a test limit, other limits are often not marked, values filed in µg/mL are converted to µM
[1] = system: Staphylococcus aureus ATCC 25923
[2] = system: Acinetobacter baumannii ATCC 19606
[3] = system: Staphylococcus aureus Cowan 1
[4] = system: Pseudomonas syringae pv. tabaci 1918NCPPB
[5] = system: Pseudomonas aeruginosa ATCC 15692
Escherichia coli D21 = system: Escherichia coli D21
Acinetobacter junii RT-4 = system: Acinetobacter junii RT-4
Saccharomyces cerevisiae = system: Saccharomyces cerevisiae
[6] = system: Staphylococcus epidermidis ATCC 12228
[7] = system: Pseudomonas aeruginosa ATCC 27853
[8] = system: Enterococcus faecalis ATCC 29212
[9] = system: Streptococcus pyogenes ATCC 21547
[10] = system: Schizosaccharomyces pombe
[11] = system: Yersinia pseudotuberculosis YPIII
Bacillus megaterium Bm11 = system: Bacillus megaterium Bm11
[12] = system: Candida albicans ATCC 10231
[13] = system: Escherichia coli ATCC 25922
Staphylococcus capitis 1 = system: Staphylococcus capitis 1
Pseudomonas aeruginosa = system: Pseudomonas aeruginosa
[14] = system: Enterococcus faecium ATCC 19434
[15] = system: Aspergillus flavus KCTC 1375
[16] = system: Candida albicans ATCC 90028
Enterococcus faecium = system: Enterococcus faecium
[17] = system: Malassezia furfur KCTC 7744
Escherichia coli = system: Escherichia coli
Staphylococcus aureus = system: Staphylococcus aureus
[18] = system: Escherichia coli O157:H7 ATCC 43895
[19] = system: Saccharomyces cerevisiae Y190
[20] = system: Arthrobacter globiformis VKM Ac-1112
[21] = system: Acinetobacter sp. DSM 586
[22] = system: Staphylococcus xylosus DSM 20267
Escherichia coli MH1 = system: Escherichia coli MH1
[23] = system: Escherichia coli DSM 1116
[24] = system: Escherichia coli DH5alpha
[25] = system: Pseudomonas aeruginosa PAO1
[26] = system: Bacillus subtilis VKM B-501
[27] = system: Bacillus subtilis subsp. spizizenii DSM 347
[28] = system: Cryptococcus neoformans ATCC 34881
[29] = system: Bacillus subtilis ATCC 62037
[30] = system: Salmonella enterica subsp. enterica serovar Enteritidis ATCC 13076
[31] = system: Escherichia coli ATCC 27325
[32] = system: Pseudomonas putida ATCC 17426
[33] = system: Staphylococcus aureus ATCC 15752
[34] = system: Streptococcus mutans ATCC 25175
[35] = system: Saccharomyces cerevisiae ATCC 44774

CC[C@H](C)[C@H](NC(=O)[C@H](CCCN=C(N)N)NC(=O)CNC(=O)[C@H](CC(C)C)NC(=O)[C@H](Cc1ccccc1)NC(=O)[C@H](CCCCN)NC(=O)[C@H](CO)NC(=O)[C@H](Cc1ccccc1)NC(=O)[C@H](Cc1c[nH]c2ccccc12)NC(=O)[C@@H]1CCCN1C(=O)[C@@H](NC(=O)[C@@H](N)Cc1ccccc1)C(C)C)C(=O)N[C@@H](CC(C)C)C(N)=O [FVPWFSKFLGRIL]
MIC [1]: 3 µM (≈ 4.83 µg/mL) | MIC [2]: 6 µM (≈ 9.65 µg/mL) | MIC [3]: 1.5 µM (≈ 2.41 µg/mL) | MIC [4]: 6 µM (≈ 9.65 µg/mL) | MIC [5]: 24 µM (≈ 38.6 µg/mL) | MIC (Escherichia coli D21): 12 µM (≈ 19.3 µg/mL) | MIC (Acinetobacter junii RT-4): 6 µM (≈ 9.65 µg/mL) | MIC (Saccharomyces cerevisiae): 6 µM (≈ 9.65 µg/mL) | MIC [6]: 1.5 µM (≈ 2.41 µg/mL) | MIC [7]: > 48 µM | MIC [8]: 6 µM (≈ 9.65 µg/mL) | MIC [9]: 6 µM (≈ 9.65 µg/mL) | MIC [10]: 3 µM (≈ 4.83 µg/mL) | MIC [11]: 3 µM (≈ 4.83 µg/mL) | MIC (Bacillus megaterium Bm11): 1.5 µM (≈ 2.41 µg/mL) | MIC [12]: 6 µM (≈ 9.65 µg/mL) | MIC [13]: 24 µM (≈ 38.6 µg/mL) | MIC (Staphylococcus capitis 1): 1.5 µM (≈ 2.41 µg/mL)

CC(C)C[C@H](NC(=O)[C@H](C)NC(=O)[C@H](C)NC(=O)[C@H](CCCCN)NC(=O)CNC(=O)[C@@H](NC(=O)[C@H](Cc1cnc[nH]1)NC(=O)[C@H](CCCCN)NC(=O)CNC(=O)[C@@H](NC(=O)[C@H](Cc1cnc[nH]1)NC(=O)[C@H](C)NC(=O)[C@H](C)NC(=O)[C@H](CCCCN)NC(=O)[C@H](CCCCN)NC(=O)[C@H](Cc1ccccc1)NC(=O)[C@H](Cc1ccccc1)NC(=O)[C@H](CO)NC(=O)CNC(=O)[C@H](Cc1c[nH]c2ccccc12)NC(=O)CN)C(C)C)C(C)C)C(=O)N[C@H](C(N)=O)[C@@H](C)O [GWGSFFKKAAHVGKHVGKAALT]
MIC (Pseudomonas aeruginosa): 10 µM (≈ 23 µg/mL) | MIC [1]: 10 µM (≈ 23 µg/mL) | MIC [14]: 10 µM (≈ 23 µg/mL) | MIC [15]: 10 µM (≈ 23 µg/mL) | MIC [16]: 10 µM (≈ 23 µg/mL) | MIC (Enterococcus faecium): 7.07 µM (≈ 16.2 µg/mL) | MIC [17]: 10 µM (≈ 23 µg/mL) | MIC (Escherichia coli): 7.07 µM (≈ 16.2 µg/mL) | MIC (Staphylococcus aureus): 7.07 µM (≈ 16.2 µg/mL) | MIC [7]: 7.07 µM (≈ 16.2 µg/mL) | MIC [18]: 7.07 µM (≈ 16.2 µg/mL)

CC[C@H](C)[C@H](NC(=O)[C@H](Cc1ccc(O)cc1)NC(=O)[C@H](CCC(N)=O)NC(=O)[C@H](CCCCN)NC(=O)[C@H](CC(C)C)NC(=O)[C@H](CCCCN)NC(=O)[C@H](CCC(=O)O)NC(=O)CNC(=O)[C@H](CCSC)NC(=O)[C@H](CO)NC(=O)[C@H](CCCCN)NC(=O)[C@H](Cc1ccccc1)NC(=O)[C@H](CCCCN)NC(=O)[C@H](CC(=O)O)NC(=O)[C@H](CCCCN)NC(=O)[C@H](CC(C)C)NC(=O)CN)C(=O)N[C@@H](CCC(N)=O)C(=O)N[C@H](C(=O)N[C@@H](Cc1c[nH]c2ccccc12)C(=O)N[C@@H](CCCCN)C(=O)N[C@@H](C)C(=O)N[C@@H](CCCCN)C(=O)N[C@@H](Cc1ccccc1)C(N)=O)[C@@H](C)O [GLKDKFKSMGEKLKQYIQTWKAKF]
MIC [19]: 18 µM (≈ 52.2 µg/mL) | MIC [20]: 0.3 µM (≈ 0.871 µg/mL) | MIC [21]: 2.76 µM (≈ 8 µg/mL) | MIC [22]: 1.38 µM (≈ 4 µg/mL) | MIC (Escherichia coli MH1): 3.2 µM (≈ 9.29 µg/mL) | MIC [23]: 11 µM (≈ 32 µg/mL) | MIC [24]: 4.5 µM (≈ 13.1 µg/mL) | MIC [25]: > 35 µM | MIC [26]: 1.1 µM (≈ 3.19 µg/mL) | MIC [27]: 2.76 µM (≈ 8 µg/mL)

CC[C@H](C)[C@H](NC(=O)[C@@H]1CCCN1C(=O)[C@H](Cc1c[nH]c2ccccc12)NC(=O)[C@H](CCC(N)=O)NC(=O)[C@H](CCCN=C(N)N)NC(=O)[C@@H](NC(=O)[C@@H](NC(=O)[C@@H](N)CCCN=C(N)N)C(C)C)C(C)C)C(=O)NCC(=O)N[C@@H](CCCN=C(N)N)C(=O)N[C@H](C(=O)N[C@H](C(=O)N[C@@H](CCCN=C(N)N)C(=O)N[C@@H](CCCN=C(N)N)C(=O)N[C@H](C(=O)N[C@H](C(=O)N[C@@H](CCCN=C(N)N)C(=O)N[C@@H](CCCN=C(N)N)C(=O)N[C@H](C(=O)N[C@H](C(=O)N[C@@H](CCCN=C(N)N)C(=O)O)C(C)C)C(C)C)C(C)C)C(C)C)C(C)C)C(C)C [RVVRQWPIGRVVRRVVRRVVR]
MIC [28]: 0.379 µM (≈ 1 µg/mL) | MIC [29]: 0.535 µM (≈ 1.41 µg/mL) | MIC [30]: 0.535 µM (≈ 1.41 µg/mL) | MIC [31]: 0.268 µM (≈ 0.707 µg/mL) | MIC [32]: 0.379 µM (≈ 1 µg/mL) | MIC [33]: 0.535 µM (≈ 1.41 µg/mL) | MIC [34]: 0.535 µM (≈ 1.41 µg/mL) | MIC [12]: 0.379 µM (≈ 1 µg/mL) | MIC [35]: 0.268 µM (≈ 0.707 µg/mL)
